Experimental data published in patent US11788092B2, “Recombinant microorganisms and uses therefor” (LanzaTech, Inc., priority 2021, dated 2023).
Converted amounts (≈) assume the structure as drawn.

Experiments:
Synechococcus elongatus = details: Begemann et al. 2013; cited from earlier work
[1] = test system: C. autoethanogenum strain with aldehyde::ferredoxin oxidoreductase (AOR) enzymes deleted; assay: 3-HP challenge experiment, autotrophic growth in Schott bottles; type: cell-based, Clostridium autoethanogenum
Description: FIGS. 2A-2B show autotrophic growth of Clostridium autoethanogenum Δaor strain in the presence of different amounts of 3-hydroxypropionic acid (at 0, 0.2, 0.5, 1, 2, 5 and 10 g/L) in Schott bottles. FIG. 2A: Growth profile; FIG. 2B: Peak Biomass. Unc=Unchallenged; N=2; Error bar=S.D.
To study the toxicity of 3-HP on autotrophic growth of C. autoethanogenum, a 3-HP challenge experiment (at 0, 0.2, 0.5, 1, 2, 5 and 10 g/L) was conducted in Schott bottles with synthetic gas blend (50% CO, 10% H2, 30% CO2 and 10% N2) using a strain with aldehyde::ferredoxin oxidoreductase (AOR) enzymes deleted (FIG. 2). […] Unc=Unchallenged; N=2; Error bar=S.D.

## O=C(O)CCO [Strain 3-HP, 3-Hydroxypropionate]
Synechococcus elongatus
  minimal inhibitory concentration: 180 µg/mL (≈ 2000 µM)
[1]; 5 g/L 3-HP
  effect on growth rate: reduced the growth rate
[1]; 5 g/L 3-HP, synthetic gas blend 50% CO, 10% H2, 30% CO2, 10% N2, N=2
  reduction of peak OD600 nm vs unchallenged culture: 22%
[1]; 10 g/L 3-HP
  effect on growth rate: more pronounced decrease in growth rate
[1]; 10 g/L 3-HP, synthetic gas blend 50% CO, 10% H2, 30% CO2, 10% N2, N=2
  decrease in peak OD600 nm vs unchallenged culture: 40%
